From patent US10758534B2 (Vertex Pharmaceuticals Incorporated, priority 2014, dated 2020)

Molecular target: T1, F508del (Homo sapiens, UniProt P13569, DEL508-508)
T1 construct: expressed in transfected cells
Experiment: Protocol 1: membrane potential optical assay (FLIPR III, voltage sensing dye), identification of potentiator compounds
Assay type: cell-based
Conditions: Table 3, compounds of Table 1
In short: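 NIH 3T3 fibroblasts stably expressing F508del were cultured at 27° C for 24 hrs for temperature correction, then treated with compounds or DMSO and loaded with a voltage-sensing redistribution dye. Forskolin added with a Cl⁻ gradient activated the channel; membrane-potential fluorescence on FLIPR III reported increased gating.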

T1 sequence (P13569 with tags, fused parts or gaps DEL508-508): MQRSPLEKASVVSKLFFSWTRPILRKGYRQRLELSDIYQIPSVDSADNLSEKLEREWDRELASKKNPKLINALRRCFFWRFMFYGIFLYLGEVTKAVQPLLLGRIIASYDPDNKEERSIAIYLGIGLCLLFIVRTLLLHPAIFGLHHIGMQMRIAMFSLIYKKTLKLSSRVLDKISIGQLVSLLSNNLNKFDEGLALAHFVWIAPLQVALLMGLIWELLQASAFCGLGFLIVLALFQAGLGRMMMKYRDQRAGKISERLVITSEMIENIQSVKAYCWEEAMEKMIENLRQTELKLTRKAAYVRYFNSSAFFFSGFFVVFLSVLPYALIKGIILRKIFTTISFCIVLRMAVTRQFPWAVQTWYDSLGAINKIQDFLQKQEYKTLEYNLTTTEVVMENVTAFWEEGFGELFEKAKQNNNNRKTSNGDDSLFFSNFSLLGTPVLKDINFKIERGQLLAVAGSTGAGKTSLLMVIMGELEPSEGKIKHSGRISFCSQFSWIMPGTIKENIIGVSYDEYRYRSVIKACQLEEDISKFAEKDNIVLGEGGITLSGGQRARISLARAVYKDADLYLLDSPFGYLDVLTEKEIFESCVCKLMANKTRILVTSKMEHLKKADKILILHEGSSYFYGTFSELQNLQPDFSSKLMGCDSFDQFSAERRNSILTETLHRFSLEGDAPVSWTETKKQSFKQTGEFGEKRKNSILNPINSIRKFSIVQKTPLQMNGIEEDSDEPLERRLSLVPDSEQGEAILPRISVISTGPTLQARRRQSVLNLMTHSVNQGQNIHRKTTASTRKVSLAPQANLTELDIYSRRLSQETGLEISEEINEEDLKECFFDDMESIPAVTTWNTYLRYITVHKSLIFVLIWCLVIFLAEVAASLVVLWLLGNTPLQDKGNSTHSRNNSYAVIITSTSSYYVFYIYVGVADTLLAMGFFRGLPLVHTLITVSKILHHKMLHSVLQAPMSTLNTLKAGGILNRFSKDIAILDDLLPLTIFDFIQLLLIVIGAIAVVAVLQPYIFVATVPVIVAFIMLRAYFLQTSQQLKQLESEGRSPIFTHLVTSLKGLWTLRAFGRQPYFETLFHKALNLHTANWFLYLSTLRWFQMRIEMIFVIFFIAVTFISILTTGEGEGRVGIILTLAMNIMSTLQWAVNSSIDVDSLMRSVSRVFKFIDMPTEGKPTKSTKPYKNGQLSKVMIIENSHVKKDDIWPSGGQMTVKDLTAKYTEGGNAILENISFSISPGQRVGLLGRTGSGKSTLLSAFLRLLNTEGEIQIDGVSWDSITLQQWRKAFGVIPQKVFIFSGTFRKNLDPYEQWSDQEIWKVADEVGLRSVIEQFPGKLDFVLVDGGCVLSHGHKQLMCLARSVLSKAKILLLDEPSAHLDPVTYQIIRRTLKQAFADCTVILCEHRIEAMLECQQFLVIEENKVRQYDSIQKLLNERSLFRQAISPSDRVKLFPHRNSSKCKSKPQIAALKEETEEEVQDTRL

| SMILES | EC30 |
| --- | --- |
| CCOc1cccc2c1CN(Cc1c(C)cc(C)cc1C)[C@@]2(C)C(=O)NS(=O)(=O)c1cccc(N)n1 [Compound 1582, (1R)—N-[(6-amino-2-pyridyl)sulfonyl]-4-ethoxy-1-methyl-2-[(2,4,6-trimethylphenyl)methyl]isoindoline-1-carboxamide] | +++ (“+++” means <3 uM) |
| CC(C)COc1cc(F)cc(-c2ccc(C(=O)NS(=O)(=O)c3cccc(N)n3)c(N3CCCC(C)C3C)n2)c1 (stereo not shown) [Compound 837, N-[(6-amino-2-pyridyl)sulfonyl]-2-(2,3-dimethyl-1-piperidyl)-6-(3-fluoro-5-isobutoxy-phenyl)pyridine-3-carboxamide] | +++ (“+++” means <3 uM) |
| CCCOc1ccc(-c2ccc(C(=O)NS(=O)(=O)c3ccc[nH]c3=O)c(Oc3c(C)cc(C)cc3C)n2)cc1F [Compound 1022, 6-(3-fluoro-4-propoxy-phenyl)-N-[(2-oxo-1H-pyridin-3-yl)sulfonyl]-2-(2,4,6-trimethylphenoxy)pyridine-3-carboxamide] | ++ (“++” means between 3 uM and 10 uM) |
| Cc1cc(C)c(Oc2nc(C3=CC(C)(C)CCC3=O)ccc2C(=O)NS(=O)(=O)c2cccc(N)n2)c(C)c1 [Compound 1598, N-[(6-amino-2-pyridyl)sulfonyl]-6-(3,3-dimethyl-6-oxo-cyclohexen-1-yl)-2-(2,4,6-trimethylphenoxy)pyridine-3-carboxamide] | +++ (“+++” means <3 uM) |
| COc1cc(F)ccc1-c1ccc(C(=O)NS(=O)(=O)c2cccc(N)n2)c(Oc2c(C)cc(C)cc2C)n1 [Compound 830, N-[(6-amino-2-pyridyl)sulfonyl]-6-(4-fluoro-2-methoxy-phenyl)-2-(2,4,6-trimethylphenoxy)pyridine-3-carboxamide] | +++ (“+++” means <3 uM) |
| CC(C)COc1cc(F)cc(-c2ccc(C(=O)NS(=O)(=O)c3cccc(N)n3)c(N3CC4C5CCC(C5)C43)n2)c1 (stereo not shown) [Compound 1821, N-[(6-amino-2-pyridyl)sulfonyl]-6-(3-fluoro-5-isobutoxy-phenyl)-2-BLAHyl-pyridine-3-carboxamide] | +++ (“+++” means <3 uM) |
| CC(C)Oc1ccc(-c2ccc(C(=O)NS(=O)(=O)c3cccc(N)n3)c(N3CC[C@@H](C)C3)n2)cn1 [Compound 1322, N-[(6-amino-2-pyridyl)sulfonyl]-6-(6-isopropoxy-3-pyridyl)-2-[(3R)-3-methylpyrrolidin-1-yl]pyridine-3-carboxamide] | ++ (“++” means between 3 uM and 10 uM) |
| Cc1cc(C)c(Oc2nc(-c3cnn(CCC(C)C)c3)ccc2C(=O)NS(=O)(=O)c2cccc(N)n2)c(C)c1 [Compound 1336, N-[(6-amino-2-pyridyl)sulfonyl]-6-(1-isopentylpyrazol-4-yl)-2-(2,4,6-trimethylphenoxy)pyridine-3-carboxamide] | +++ (“+++” means <3 uM) |
| Cc1ccc(-c2nc(C(C)(C)C)ccc2C(=O)NS(=O)(=O)c2ccccc2O)cc1 [Compound 1175, 6-tert-butyl-N-(2-hydroxyphenyl)sulfonyl-2-(p-tolyl)pyridine-3-carboxamide] | +++ (“+++” means <3 uM) |
| CC(C)COc1cc(F)cc(-c2ccc(C(=O)NS(=O)(=O)c3cccc(N)n3)c(N3[C@@H]4CCC[C@H]3CC4)n2)c1 [Compound 934, N-[(6-amino-2-pyridyl)sulfonyl]-2-[(1R,5S)-8-azabicyclo[3.2.1]octan-8-yl]-6-(3-fluoro-5-isobutoxy-phenyl)pyridine-3-carboxamide] | +++ (“+++” means <3 uM) |
| COc1cccc(S(=O)(=O)NC(=O)c2ccc(-c3cc(F)cc(OCC(C)C)c3)nc2N2C[C@@H](C)CC2(C)C)n1 [Compound 1483, 6-(3-fluoro-5-isobutoxy-phenyl)-N-[(6-methoxy-2-pyridyl)sulfonyl]-2-[(4S)-2,2,4-trimethylpyrrolidin-1-yl]pyridine-3-carboxamide] | +++ (“+++” means <3 uM) |
| CCc1ccc(C(=O)NS(=O)(=O)c2cccc(N)n2)c(Oc2c(C)cc(C)cc2C)n1 [Compound 963, N-[(6-amino-2-pyridyl)sulfonyl]-6-ethyl-2-(2,4,6-trimethylphenoxy)pyridine-3-carboxamide] | ++ (“++” means between 3 uM and 10 uM) |
| CC1CN(c2ncccc2C(=O)NS(=O)(=O)c2cccc(N3CCN(c4ccccn4)CC3)n2)C(C)(C)C1 (stereo not shown) [Compound 1816, N—[[6-[4-(2-pyridyl)piperazin-1-yl]-2-pyridyl]sulfonyl]-2-(2,2,4-trimethylpyrrolidin-1-yl)pyridine-3-carboxamide] | +++ (“+++” means <3 uM) |
| Cc1cccc(C)c1Cn1nc(-c2coc3ccccc3c2=O)cc1C(=O)NS(=O)(=O)c1ccccc1 [Compound 1501, N-(benzenesulfonyl)-2-[(2,6-dimethylphenyl)methyl]-5-(4-oxochromen-3-yl)pyrazole-3-carboxamide] | +++ (“+++” means <3 uM) |
| CC(C)COc1cc(F)cc(-c2ccc(C(=O)NS(=O)(=O)c3cccc(N)n3)c(N3CC[C@@H](C)C3)n2)c1 [Compound 1051, N-[(6-amino-2-pyridyl)sulfonyl]-6-(3-fluoro-5-isobutoxy-phenyl)-2-[(3R)-3-methylpyrrolidin-1-yl]pyridine-3-carboxamide] | +++ (“+++” means <3 uM) |
| CC(C)Oc1ccc(-c2ccc(C(=O)NS(=O)(=O)c3cccnc3N)c(N3C[C@H](C)CC3(C)C)n2)cn1 [Compound 1240, N-[(2-amino-3-pyridyl)sulfonyl]-6-(6-isopropoxy-3-pyridyl)-2-[(4R)-2,2,4-trimethylpyrrolidin-1-yl]pyridine-3-carboxamide] | +++ (“+++” means <3 uM) |
| Cc1cc(C)c(Oc2nc(-c3ccccc3)ccc2C(=O)NS(=O)(=O)c2cccc(N(C)C)n2)c(C)c1 [Compound 869, N-[[6-(dimethylamino)-2-pyridyl]sulfonyl]-6-phenyl-2-(2,4,6-trimethylphenoxy)pyridine-3-carboxamide] | +++ (“+++” means <3 uM) |
| CCCN(CC1CC1)c1nc(-c2cc(F)cc(OCC(C)C)c2)ccc1C(=O)NS(=O)(=O)c1cccc(N)n1 [Compound 881, N-[(6-amino-2-pyridyl)sulfonyl]-2-[cyclopropylmethyl(propyl)amino]-6-(3-fluoro-5-isobutoxy-phenyl)pyridine-3-carboxamide] | +++ (“+++” means <3 uM) |
| Cc1cc(C)c(Oc2nc(-c3cccc(OC(C)C)c3)ccc2C(=O)NS(=O)(=O)c2ccc[nH]c2=O)c(C)c1 [Compound 1188, 6-(3-isopropoxyphenyl)-N-[(2-oxo-1H-pyridin-3-yl)sulfonyl]-2-(2,4,6-trimethylphenoxy)pyridine-3-carboxamide] | +++ (“+++” means <3 uM) |
| CC1CN(c2nc(C(C)(C)C)c(C3=CCN(C(=O)OC(C)(C)C)CC3)cc2C(=O)NS(=O)(=O)c2cccc(N)n2)C(C)(C)C1 (stereo not shown) [Compound 1522, tert-butyl 4-[5-[(6-amino-2-pyridyl)sulfonylcarbamoyl]-2-tert-butyl-6-(2,2,4-trimethylpyrrolidin-1-yl)-3-pyridyl]-3,6-dihydro-2H-pyridine-1-carboxylate] | +++ (“+++” means <3 uM) |
| CC(C)COc1ccc(-c2ccc(C(=O)NS(=O)(=O)c3ccc[nH]c3=O)c(N3CCC(C)CC3)n2)cc1 [Compound 1017, 6-(4-isobutoxyphenyl)-2-(4-methyl-1-piperidyl)-N-[(2-oxo-1H-pyridin-3-yl)sulfonyl]pyridine-3-carboxamide] | ++ (“++” means between 3 uM and 10 uM) |
| CC[C@]1(C)C[C@H](C)CN1c1nc(-c2cc(F)cc(OCC(C)C)c2)ccc1C(=O)NS(=O)(=O)c1cccc(N)n1 (single isomer, unassigned) [Compound 1817, N-[(6-amino-2-pyridyl)sulfonyl]-2-(2-ethyl-2,4-dimethyl-pyrrolidin-1-yl)-6-(3-fluoro-5-isobutoxy-phenyl)pyridine-3-carboxamide] | +++ (“+++” means <3 uM) |
| CC(C)=C(C)c1ccc(C(=O)NS(=O)(=O)c2cccc(N)n2)c(Oc2c(C)cc(C)cc2C)n1 [Compound 1390, N-[(6-amino-2-pyridyl)sulfonyl]-6-(1,2-dimethylprop-1-enyl)-2-(2,4,6-trimethylphenoxy)pyridine-3-carboxamide] | +++ (“+++” means <3 uM) |
| Cc1cc(C)c(Oc2nc(-c3cc(OCC(C)C)ccc3Cl)ccc2C(=O)NS(=O)(=O)c2ccc[nH]c2=O)c(C)c1 [Compound 1201, 6-(2-chloro-5-isobutoxy-phenyl)-N-[(2-oxo-1H-pyridin-3-yl)sulfonyl]-2-(2,4,6-trimethylphenoxy)pyridine-3-carboxamide] | +++ (“+++” means <3 uM) |
| CCC1CCC(c2ccc(C(=O)NS(=O)(=O)c3cccc(N)n3)c(Oc3c(C)cc(C)cc3C)n2)CC1 (stereo not shown) [Compound 1475, N-[(6-amino-2-pyridyl)sulfonyl]-6-(4-ethylcyclohexyl)-2-(2,4,6-trimethylphenoxy)pyridine-3-carboxamide] | +++ (“+++” means <3 uM) |
| Cc1cc(C)c(Oc2nc(-c3cccc(OCC(C)C)c3F)ccc2C(=O)NS(=O)(=O)c2ccc[nH]c2=O)c(C)c1 [Compound 804, 6-(2-fluoro-3-isobutoxy-phenyl)-N-[(2-oxo-1H-pyridin-3-yl)sulfonyl]-2-(2,4,6-trimethylphenoxy)pyridine-3-carboxamide] | +++ (“+++” means <3 uM) |
| CC(C)COc1cc(F)cc(-c2ccc(C(=O)NS(=O)(=O)c3cccc(N)n3)c(N3CCCC3C(C)C)n2)c1 (stereo not shown) [Compound 1258, N-[(6-amino-2-pyridyl)sulfonyl]-6-(3-fluoro-5-isobutoxy-phenyl)-2-(2-isopropylpyrrolidin-1-yl)pyridine-3-carboxamide] | +++ (“+++” means <3 uM) |
| CC1CN(c2nc(-c3ccnn3C(C)C)ccc2C(=O)NS(=O)(=O)c2cccc(N)n2)C(C)(C)C1 (stereo not shown) [Compound 1242, N-[(6-amino-2-pyridyl)sulfonyl]-6-(2-isopropylpyrazol-3-yl)-2-(2,2,4-trimethylpyrrolidin-1-yl)pyridine-3-carboxamide] | +++ (“+++” means <3 uM) |
